Laboratory results from patent publication EP2112152A1, “Dihydropteridinones as Plk Inhibitors” (GPC Biotech AG, priority 2008, dated 2009).
Where two headings read alike, the source gives them in different places. Each block holds one molecule with its values, some of them ahead of it.

Legend:
[1] = test system: Abl, Akt1, Aur A, c-Kit, c-Raf, Cdk1/CycB, Chk1, FGFR3, Flt3, Fyn, IGF1-R, INSR, Lyn, MAPK-ERK1, p38a, PAK4, PKCalpha, Ret, ROCK2, RSK 1, c-Src, TIE2, and …; assay: Selectivity panel (Proteros), 23 other kinases; type: biochemical; conditions: tested at 1 mM in triplicates; each of the 23 other kinases
Protocol: Selected compound of the present invention were tested in a standard selectivity panel including Plk1 and 23 other kinases (Proteros biostructures GmbH, Martinsried/Munich, Germany), under conditions of non-disclosure, non-dissemination and non-use.
In brief, compounds 1, 13, 14, and 25 (see Table 1) were tested at 1 mM in triplicates against Plk1 as well as against Abl, Akt1, Aur A, c-Kit, c-Raf, Cdk1/CycB, Chk1, FGFR3, Flt3, Fyn, IGF1-R, INSR, Lyn, MAPK-ERK1, p38a, PAK4, PKCalpha, Ret, ROCK2, RSK 1, c-Src, TIE2, and VEGF-R2.

[2] = test system: HCT 116; assay: SRB cell proliferation assay, HCT 116; type: cell-based; conditions: Homo sapiens
Protocol: (§1) We observed the surprising finding that compounds of the invention were useful in inhibiting proliferation of tumor cell lines (see Table 3).
(§2) Cells were exposed to the test compounds at various concentrations appropriate to determine an IC50 for 72 hours. Cell proliferation was measured using the SRB assay according to Shekan et al (J Natl Cancer Inst (1990) 82, 1107-112) in order to estimate the IC50 values shown in Table 3. Briefly, cells were plated in 96 well dishes 24 hours prior to compound addition at the densities specified in Table 5.1. The assay was terminated with the addition of cold TCA to a final concentration of 10% after growth medium has been removed and the plates were incubated over night at 4°C. The plates were then washed 5 times with water and 100µl of a Sulforhodamine B solution (4%) was added to each well. The plates were then incubated for 10 minutes at room temperature before removal of unbound dye by washing with 1% acetic acid. The bound dye was solubilised with 10 mM Trizma base and the absorbance read at OD520.
(§3) Inhibitory activity of the compounds (IC) was calculated as % inhibition of cell proliferation compared to cells treated with the solvent (DMSO).
(§4) Table 8.1: 18-Cell Line Panel

[3] = test system: HT-29; assay: SRB cell proliferation assay, HT-29; type: cell-based; conditions: Homo sapiens
Protocol: as §1, §2, §3, §4

[4] = test system: IMR-90; assay: SRB cell proliferation assay, IMR-90; type: cell-based; conditions: Homo sapiens
Protocol: as §1, §2, §3, §4

[5] = target: Plk1 (Homo sapiens, UniProt P53350); assay: Cellular Plk1 kinase activity: nucleophosmin (B23) Ser4 phosphorylation in HCT116 cells (MSD electrochemiluminescence); type: cell-based; parameters: host or cells: HCT116; conditions: 100 ng/ml nocodazole, 4 hours after compound addition, read-out: Biochemical IC50 Nucleophosmin assay
Protocol: We observed the surprising finding that compounds of the invention were able to penetrate cell membranes and retained their activity as Plk1 inhibitors against native Plk1 expressed within living cancer cells.
Cellular Plk1 kinase activity was measured by quantification of nucleophosmin (B23) Ser4 phosphorylation in a cancer cell line. Nucleophosmin (B23) Ser4 is phosphorylated by Plk1, and this phosphorylation can be specifically detected by cross-reactivity of a phospho-Mek1/2 antibody that is able to recognizes a mitotic-specific phosphorylated form of nucleophosmin (B23) in a nocodazole dependent way (Zhang, H., Shi, X., Paddon, H., Hampong, M., Dai, W., and Pelech, S. (2004) B23/Nuleophosmin Serin 4 Phosphorylation Mediates Mitotic Functions of Polo-like Kinase 1. J. Biol. Chem., 279(34), 35726-35734).
Briefly, HCT116 cells (ATCC, Order No. CCL-247) were plated in 96 well dishes 24 hours prior to nocodazole treatment at 25 000 cells per well. Cells were then treated with 100 ng/ml nocodazole (Sigma-Aldrich, # M1404). 20 hours after nocodazole treatment, cells were exposed to the test compounds at various concentrations appropriate to determine an IC50. 4 hours after compound addition, medium was carefully removed and 120 µl of Complete Tris Lysis Buffer (R60TX; MSD, Gaithersburg MD) was added to each well. Samples were then stored at -20°C.
The level of nucleophosmin (B23) Ser4 phosphorylation in these cell lysis samples was estimated by electrochemiluminescence detection using the Meso Scale Discovery ("MSD") Technology Platform (MSD, Gaithersburg MD). The protocol used was as recommended by the manufacturer with the use of a phospho-Mek1/2 antibody (Cell Signalling, #9121) as primary antibody, and is as follows.
The cell lysates were thawed at room temperature and 40 µl were incubated on 96-well MULTI-ARRAY High Bind plates (L11XB; MSD) for 1.5 - 2 hours at room temperature. The supernatants were then removed and 150 µl of a 5% (w/v) solution of Blocker A (R93AA; MSD) in Tris Wash Buffer (R61TX; MSD) were added to each well. The plates were then incubated for 1 hour at room temperature before removal of the Blocker A solution and washed 4 times with 200 µl Tris Wash Buffer. 25 µl primary antibody (anti-phospho-MEK1/2, Cell Signalling, #9121, rabbit polyclonal), diluted 1:250 in a 1% (w/v) solution of Blocker A in Tris Wash Buffer, were added to each well. The plates were then incubated for 1 hour at room temperature before removal of the antibody solution and washed 4 times with 200 µl Tris Wash Buffer. Then, 25 µl of labelled secondary antibody (SULFO-TAG Goat Anti-Rabbit IgGAntibody (R32AB; MSD), diluted 1:500 in a 1% (w/v) solution of Blocker A in Tris Wash Buffer) were added to each well. The plates were then incubated for 1 hour at room temperature before removal of the antibody solution and washed 4 times with 200 µl Tris Wash Buffer. Then, […] of 1x Read Buffer T (R92TC; MSD) were carefully added to each well and the plates were quantitatively detected for each well with a SECTOR™ Imager 6000 (MSD).
Inhibitory activity of the compounds (IC) was calculated as % inhibition of nucleophosmin (B23) Ser4 phosphorylation compared to cells not treated with nocodazole.

[6] = test system: MDA-MB-468; assay: SRB cell proliferation assay, MDA-MB-468; type: cell-based; conditions: 18-Cell Line Panel; breast
Protocol: as §2, §4

[7] = test system: PC-3; assay: SRB cell proliferation assay, PC-3; type: cell-based; conditions: Homo sapiens, 18-Cell Line Panel, prostate
Protocol: as §2, §4

[8] = test system: SK-MEL-28; assay: SRB cell proliferation assay, SK-MEL-28; type: cell-based; conditions: Homo sapiens, 18-Cell Line Panel, melanoma
Protocol: as §2, §4

[9] = test system: OVCAR-3; assay: SRB cell proliferation assay, OVCAR-3; type: cell-based; conditions: Homo sapiens, 18-Cell Line Panel, ovary
Protocol: as §2, §4

[10] = test system: MDA-MB-231; assay: SRB cell proliferation assay, MDA-MB-231; type: cell-based; conditions: Homo sapiens, 18-Cell Line Panel, breast
Protocol: as §2, §4

[11] = test system: A549; assay: SRB cell proliferation assay, A549; type: cell-based; conditions: Homo sapiens, 18-Cell Line Panel, lung
Protocol: as §2, §4

[12] = test system: HeLa; assay: SRB cell proliferation assay, HeLa; type: cell-based; conditions: Homo sapiens, 18-Cell Line Panel, cervix
Protocol: as §2, §4

[13] = test system: A-375; assay: SRB cell proliferation assay, A-375; type: cell-based; conditions: Homo sapiens, 18-Cell Line Panel, melanoma
Protocol: as §2, §4

[14] = test system: SW620; assay: SRB cell proliferation assay, SW620; type: cell-based; conditions: Homo sapiens, SW-620; 18-Cell Line Panel; colon
Protocol: as §2, §4

[15] = test system: SK-MEL-5; assay: SRB cell proliferation assay, SK-MEL-5; type: cell-based; conditions: Homo sapiens, 18-Cell Line Panel, melanoma
Protocol: as §2, §4

[16] = test system: A-431; assay: SRB cell proliferation assay, A-431; type: cell-based; conditions: Homo sapiens, 18-Cell Line Panel, skin
Protocol: as §2, §4

[17] = test system: DU 145; assay: SRB cell proliferation assay, DU 145; type: cell-based; conditions: Homo sapiens, 18-Cell Line Panel, prostate, read-out: IC50 DU145
Protocol: as §2, §4

[18] = test system: NCI-H460; assay: SRB cell proliferation assay, NCI-H460; type: cell-based; conditions: Homo sapiens, 18-Cell Line Panel, NSCLC
Protocol: as §2, §4

[19] = test system: COLO 205; assay: SRB cell proliferation assay, COLO 205; type: cell-based; conditions: Homo sapiens, 18-Cell Line Panel, colon
Protocol: as §2, §4

[20] = test system: ACHN; assay: SRB cell proliferation assay, ACHN; type: cell-based; conditions: Homo sapiens, 18-Cell Line Panel, kidney
Protocol: as §2, §4

[21] = HCT-116, 72 h, 72 hours, SRB assay, read-out: CELLULAR IC50 HCT 116
[22] = HT-29, 72 h, 72 hours, SRB assay, read-out: CELLULAR IC50 HT-29
[23] = 72 hours, SRB assay, slow cycling cell line, read-out: CELLULAR IC50 IMR-90

Sequence of Plk1 (P53350 whole entry, species assumed): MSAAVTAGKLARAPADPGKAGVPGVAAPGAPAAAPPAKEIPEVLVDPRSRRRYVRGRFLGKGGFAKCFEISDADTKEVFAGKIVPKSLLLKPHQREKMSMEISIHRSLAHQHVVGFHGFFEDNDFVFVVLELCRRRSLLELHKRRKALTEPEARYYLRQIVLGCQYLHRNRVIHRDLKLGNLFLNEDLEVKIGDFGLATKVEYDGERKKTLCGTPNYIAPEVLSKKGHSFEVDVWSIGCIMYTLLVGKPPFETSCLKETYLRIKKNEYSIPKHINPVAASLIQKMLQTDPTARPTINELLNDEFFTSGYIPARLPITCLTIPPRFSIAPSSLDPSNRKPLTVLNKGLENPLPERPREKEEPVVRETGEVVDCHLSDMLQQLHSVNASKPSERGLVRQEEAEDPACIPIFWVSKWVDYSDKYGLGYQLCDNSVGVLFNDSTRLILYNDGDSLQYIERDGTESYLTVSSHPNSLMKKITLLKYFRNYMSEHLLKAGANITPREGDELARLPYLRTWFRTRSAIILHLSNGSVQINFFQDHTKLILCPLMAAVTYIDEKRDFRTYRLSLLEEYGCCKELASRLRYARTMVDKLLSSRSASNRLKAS

IC50 [2, 21]: < 1000 nM | IC50 [3, 22]: < 1000 nM | IC50 [5]: < 100 nM
Structure (SMILES): CCC1C(=O)N(C)c2cnc(Nc3ccc(C(=O)NC4CCN(C5CCN(Cc6ccccc6)CC5)CC4)cc3OC)nc2N1N(C)C (centres unmarked) [Compound 14, N-(1'-Benzyl-[1,4']bipiperidinyl-4-yl)-4-(8-dimethylamino-7-ethyl-5-methyl-6-oxo-5,6,7,8-tetrahydro-pteridin-2-ylamino)-3-methoxy-benzamide]
all other kinases were inhibited [1]: less than 10% | IC50 [4, 23]: > 1000 nM

Structure (SMILES): CCC1C(=O)N(C)c2cnc(Nc3ccc(C(=O)NC4CCN(C)CC4)cc3OC)nc2N1C1CCCC1 (centres unmarked) [BI 2536, reference compound]
IC50 MDA-MB-468 [6]: plateau at ∼50% | IC50 [7]: < 1000 nM | IC50 [8]: < 1000 nM | IC50 [9]: < 1000 nM | IC50 [10]: < 1000 nM | IC50 [11]: < 1000 nM | IC50 [12]: < 1000 nM | IC50 [13]: < 1000 nM | IC50 [14]: < 1000 nM | IC50 [15]: < 1000 nM | IC50 [16]: < 1000 nM | IC50 ([2]; HCT-116, 18-Cell Line Panel, colon, read-out: IC50 HCT116): < 1000 nM | IC50 [17]: < 1000 nM | IC50 ([3]; HT-29, 18-Cell Line Panel, colon, read-out: IC50 HT-29): < 1000 nM | IC50 [18]: < 1000 nM | IC50 ([4]; 18-Cell Line Panel, lung, read-out: IC50 IMR-90): > 1000 nM | IC50 [19]: < 1000 nM | IC50 [20]: < 1000 nM

IC50 [2, 21]: < 1000 nM | IC50 [3, 22]: < 1000 nM | IC50 [5]: < 100 nM
Structure (SMILES): CCC1C(=O)N(C)c2cnc(Nc3ccc(C(=O)NC4CCN(C)CC4)cc3OC)nc2N1N(C)CC1CCCC1 (centres unmarked) [Compound 27, 4-[8-(Cyclopentylmethyl-methyl-amino)-7-ethyl-5-methyl-6-oxo-5,6,7,8-tetrahydro-pteridin-2-ylamino]-3-methoxy-N-(1-methyl-piperidin-4-yl)-benzamide]
IC50 [4, 23]: > 1000 nM

IC50 [2, 21]: < 1000 nM | IC50 [3, 22]: < 1000 nM | IC50 [5]: < 100 nM
Structure (SMILES): CCC1C(=O)N(C)c2cnc(Nc3ccc(C(=O)NC4CCN(C)CC4)cc3OC)nc2N1N(C)CC (centres unmarked) [Compound 25, 4-[7-Ethyl-8-(ethyl-methyl-amino)-5-methyl-6-oxo-5,6,7,8-tetrahydro-pteridin-2-ylamino]-3-methoxy-N-(1-methyl-piperidin-4-yl)-benzamide]
all other kinases were inhibited [1]: less than 10% | IC50 [4, 23]: > 1000 nM
